Values after ≈ are worked out from the molar mass of the structure shown. “Also recorded” adds a separate entry of the source. Bridge positions count the residues as written; N and C are the ends. Peptide text beside a SMILES is read from it.
Experiments:
C. acnes HL043PA1 = format: cell-based, Cutibacterium acnes; conditions: C. acnes HL043PA1; RCM broth, anaerobic, 1 × 10^6 CFU per mL, two-fold dilutions 0.5–32 μg/mL, 48 h, OD 600 nm; mean of three replicates
Method: (§1) The ten antibiotic resistant C. acnes clinical isolates were acquired from BEI resources with the two reference strains obtained from American Type Culture Collection (ATCC, Manassas, VA, USA). C. acnes is a relatively slow-growing, typically aerotolerant anaerobic so all in vitro C. acnes experiments were performed under anaerobic conditions.
(§2) Single colonies were inoculated in Reinforced Clostridium Medium (RCM) broth supplemented with sodium thioglycolate and incubated at 37 °C, with shaking at 200 rpm, for 2 or 3 days to reach logarithmic growth (OD600nm = 1.0). Each C. acnes (1 × 10^6 CFU per mL) was incubated with dAMP or clindamycin at two-fold serial dilutions (0.5–32 μg per mL) in RCM on a 96-well microplate for 48 h. Three replicas were included for each test article concentration. Bacterial growth was measured by optical density at 600 nm to determine the MIC for each dAMP applied.

C. acnes HL072PA1 = format: cell-based, Cutibacterium acnes; conditions: C. acnes HL072PA1; RCM broth, anaerobic, 1 × 10^6 CFU per mL, two-fold dilutions 0.5–32 μg/mL, 48 h, OD 600 nm; mean of three replicates
Method: as §1, §2

C. acnes ATCC11827 = format: cell-based, Cutibacterium acnes; conditions: C. acnes ATCC11827; RCM broth, anaerobic, 1 × 10^6 CFU per mL, two-fold dilutions 0.5–32 μg/mL, 48 h, OD 600 nm; mean of three replicates
Method: as §1, §2

C. acnes HL056PA1 = format: cell-based, Cutibacterium acnes; conditions: C. acnes HL056PA1; RCM broth, anaerobic, 1 × 10^6 CFU per mL, two-fold dilutions 0.5–32 μg/mL, 48 h, OD 600 nm; mean of three replicates
Method: as §1, §2

C. acnes HL043PA2 [1] = format: cell-based, Cutibacterium acnes; conditions: C. acnes HL043PA2 (multi-drug resistant); RCM broth, anaerobic, 1 × 10^6 CFU per mL, two-fold dilutions 0.5–32 μg/mL, 48 h, OD 600 nm; mean of three replicates
Method: as §1, §2

C. acnes ATCC6919 = format: cell-based, Cutibacterium acnes; conditions: C. acnes ATCC6919; RCM broth, anaerobic, 1 × 10^6 CFU per mL, two-fold dilutions 0.5–32 μg/mL, 48 h, OD 600 nm; mean of three replicates
Method: as §1, §2

[2] = system: C. acnes HL043PA2 compared to human keratinocytes; format: cell-based
Method: In evaluating the clinical utility of each of the candidate dAMPs for C. acnes treatment, the Therapeutic Index was determined. The Therapeutic Index is defined as the ratio of concentration at which the dAMP is active against the prokaryotic C. acnes pathogen without inducing cytotoxic damage to the surrounding mammalian cells. The EC10 and EC50 doses, defined as the concentrations required to kill 10% and 50% respectively of human keratinocytes following 8 h incubation with each of the Riptide dAMPs, are tabulated and graphed in Table 2 and Figure 3, respectively. The larger the Therapeutic Index, the greater the specificity of the dAMP for destroying C. acnes cells.
as §2
(§3) Noninvasive and real-time monitoring of mammalian cytotoxicity to assess the potential skin toxicity of the dAMPs was evaluated using bioluminescent human immortalized keratinocytes (HaCaT, AddexBio, San Diego, CA, USA). The bioluminescent variant of HaCaT was constructed by transfection with a luciferase gene (RediFect Red-Fluc-Puromycin, Cat# CL596002). Keratinocytes (1 × 10^4 cells, 100 μL) were plated in 96-well black-walled plates. The candidate dAMPs were 2-fold serially diluted from 1024 µg/mL in growth medium supplemented with 150 µg/mL D-luciferin. Each concentration was performed in triplicate, with the final volume being 200 μL. Imaging was performed at select times (0, 15, and 30 min and 1, 3, 5, and 8 h) after the addition of the dAMP, and compared to concurrently run vehicle-control, using an IVIS Lumina imaging system (Caliper Life Sciences, Inc., Hopkinton, MA, USA). For imaging, the 96-well plate was positioned on the stage (12.5-cm field of view), with an open emission filter, binning of 4, and f-stop 1 and a 1-min exposure time. Data analysis was performed using the Living Image software program (version 4.3, Caliper Life Sciences, Inc.). The dAMP concentrations required to kill 10% and 50% of keratinocytes were determined using GraphPad Prism 7 (GraphPad Software, San Diego, CA, USA).

[3] = system: bioluminescent human immortalized keratinocytes (HaCaT); experiment: Mammalian cytotoxicity, bioluminescent human keratinocytes; format: cell-based; conditions: bioluminescent HaCaT
Method: as §3

C. acnes HL043PA2 [4] = experiment: Multidrug-resistant C. acnes intradermal murine infection model; format: in vivo; conditions: topical 25 μL, BALB/c mice; for mean bacterial burden in skin (CFU/g): 7 applications 2–74 h post infection, skin harvested at 96 h, n = 6
Method: All animals received care in compliance with the Guide for the Care and Use of Laboratory Animals (8th Edition, National Institutes of Health Publication, 2011). All studies were approved by the Institutional Animal Care and Use Committee. Female BALB/c mice, 5 to 7 weeks, were obtained from Envigo Laboratories Inc (Indianapolis, IN, USA). General anesthesia consisted of an intraperitoneal injection of ketamine 100 mg/kg and xylazine 10 mg/kg (Vedco, Inc., St. Joseph, MO, USA).
Mice were inoculated via intradermal (ID) injection of the antibiotic-resistant C. acnes HL043PA2 (7.0 log10 CFU, 50 μL, BEI Resources, HM-514, [14]). The day prior to infection, each mouse was anesthetized using isoflurane, and an area of approximately 1″ × 1″ of skin on the dorsal area of each mouse was shaved and cleared of hair using the depilatory agent Nair®. Beginning 2 h after infection, mice were anesthetized and RP556, formulated in 2% hydroxypropyl methylcellulose in water, viscosity 3000–5600 cP, or 40 mg/mL clindamycin (4%) was administered topically, at 25 μL twice daily for a total of 7 applications (2, 14, 26, 38, 50, 62 and 74 h post infection). Abscesses were harvested at 96 h post-challenge (or Day 7 for untreated control) and assessed for bacterial CFU per gram of skin tissue.

**Q.** Which results are given for `CC[C@H](C)[C@@H]1NC(=O)CNC(=O)[C@H](CCCCN)NC(=O)[C@H](Cc2ccc(O)cc2)NC(=O)[C@@H]2CSSC[C@H](NC1=O)C(=O)N[C@@H](Cc1ccc(O)cc1)C(=O)N[C@@H](CCCCN)C(=O)N[C@@H](CCCCN)C(=O)N[C@H](C(=O)N[C@@H](CCCCN)C(N)=O)CSSC[C@H](NC(=O)[C@H](Cc1c[nH]c3ccccc13)NC(=O)[C@@H](N)CCCNC(=N)N)C(=O)N[C@@H](Cc1ccccc1)C(=O)N[C@@H](CCCCN)C(=O)N[C@@H](C(C)C)C(=O)N2` [RP556] (H-RWCFKVCYKGICYKKCK-NH2; disulfide 3-16, 7-12)?
**A.** MIC (C. acnes HL043PA1): 4 µg/mL (≈ 1.86 µM); MIC (C. acnes HL072PA1): 8 µg/mL (≈ 3.72 µM); MIC (C. acnes ATCC11827): 8 µg/mL (≈ 3.72 µM); MIC (C. acnes HL056PA1): 2 µg/mL (≈ 0.929 µM); MIC (C. acnes HL043PA2 [1]): 4 µg/mL (≈ 1.86 µM); MIC (C. acnes ATCC6919): 4 µg/mL (≈ 1.86 µM); Therapeutic Index (EC10 / MIC) ([2]; keratinocyte EC10 (8 h) versus MIC against HL043PA2 C. acnes): 70; Therapeutic Index (EC50 / MIC) ([2]; keratinocyte EC50 (8 h) versus MIC against HL043PA2 C. acnes): 130; viability of human keratinocytes ([3]; 8 h incubation at 256 μg/mL): greater than 80%; EC10, concentration required to kill 10% of human keratinocytes ([3]; 1 × 10^4 cells/well, 8 h incubation, 2-fold dilutions from 1024 µg/mL, triplicate, IVIS imaging, GraphPad Prism 7): 276 µg/mL; mean bacterial burden in skin (CFU/g) (C. acnes HL043PA2 [4]; RP556 5 mg/mL (0.5%) in 2% hydroxypropyl methylcellulose): below the detectable limit; also recorded: completely eliminated C. acnes infection; mean bacterial burden in skin (CFU/g) (C. acnes HL043PA2 [4]; RP556 20 mg/mL in 2% hydroxypropyl methylcellulose): below the detectable limit; clinical observations and body weight following treatment (C. acnes HL043PA2 [4]; 5 and 20 mg/mL, 7 applications): no untoward clinical observations or changes in body weight
